The source of these data is ChEMBL document CHEMBL1671670, “CS-8958, a prodrug of the novel neuraminidase inhibitor R-125489, demonstrates a favorable long-retention profile in the mouse respiratory tract” (Antimicrob Agents Chemother, 2009).

pIC50: −log10 of the molar value.

In general, Tmax refers to the time at which the peak concentration occurs. In general, pIC50 refers to the negative decadic logarithm of the IC50, by convention in mol/L. Higher therefore signals a small IC50.

Data set [1] is described as follows: Biodistribution in trachea of BALB/cAnNCrlCrlj mouse at 0.5 umol/kg administered as [14C]labeled compound intranasally as single dose measured 0.25 hrs post dose by liquid scintillation counting. Particulars: in vivo, inhaled_or_intranasal; call rule not given here. In kind it is ADME, organism-based.
In data set [2] the test system is Lung. The data set can be described thus: Biodistribution in lung of BALB/cAnNCrlCrlj mouse at 0.5 umol/kg administered as [14C]labeled compound intranasally as single dose measured 0.25 hrs post dose by liquid scintillation counting. To be noted: in vivo, inhaled_or_intranasal. The format is ADME, organism-based.
A short description of data set [3]: Biodistribution in respiratory tract of BALB/cAnNCrlCrlj mouse at 0.5 umol/kg administered as [14C]labeled compound intranasally as single dose measured 6 hrs post dose by whole body autoradiography. In kind it is ADME, organism-based. To be noted: in vivo, inhaled_or_intranasal.
A short description of data set [4]: Biodistribution in respiratory tract of BALB/cAnNCrlCrlj mouse at 0.5 umol/kg administered as [14C]labeled compound intranasally as single dose measured 72 hrs post dose by whole body autoradiography. To be noted: in vivo, inhaled_or_intranasal. In kind it is ADME, organism-based.
The nature of data set [5]: Biodistribution in trachea of BALB/cAnNCrlCrlj mouse at 0.5 umol/kg administered as [14C]labeled compound intranasally as single dose measured 24 hrs post dose by liquid scintillation counting. In kind it is ADME, organism-based. Particulars: in vivo, inhaled_or_intranasal.
The test system of data set [6] is Lung. The data set can be described thus: Biodistribution in lung of BALB/cAnNCrlCrlj mouse at 0.5 umol/kg administered as [14C]labeled compound intranasally as single dose measured 24 hrs post dose by liquid scintillation counting. To be noted: in vivo, inhaled_or_intranasal. In kind it is ADME, organism-based.
Data set [7] deals with Lung. The data set can be described thus: Half life in BALB/cAnNCrlCrlj mouse lung at 0.5 umol/kg administered as [14C]labeled compound intranasally as single dose. In kind it is ADME, organism-based. Particulars: in vivo, inhaled_or_intranasal.
A short description of data set [8]: Prodrug conversion in BALB/cAnNCrlCrlj mouse trachea assessed as compound conversion to R-125489 at 10 uM relative to untreated control. In kind it is ADME, tissue-based.
A short description of data set [9]: Prodrug conversion in BALB/cAnNCrlCrlj mouse trachea assessed as compound conversion to R-125489 at 10 uM in presence of esterase inhibitor DFP administered 10 mins before compound addition relative to untreated control. In kind it is ADME, tissue-based.
Data set [10] in a line: Prodrug conversion in BALB/cAnNCrlCrlj mouse lung S9 fraction assessed as compound conversion to R-125489 at 10 uM relative to untreated control. In kind it is ADME. To be noted: s9, 10 µM.
Data set [11] can be described thus: Prodrug conversion in BALB/cAnNCrlCrlj mouse lung S9 fraction assessed as compound conversion to R-125489 at 10 uM in presence of esterase inhibitor DFP administered 10 mins before compound addition relative to untreated control. To be noted: s9, 10 min. The format is ADME.
Data set [12] in a line: Prodrug conversion in BALB/cAnNCrlCrlj mouse lung S9 fraction assessed as compound conversion to R-125489 at 10 uM in presence of esterase inhibitor eserine administered 10 mins before compound addition relative to untreated control. In kind it is ADME. To be noted: s9, 10 min.
Data set [13] in a line: Prodrug conversion in BALB/cAnNCrlCrlj mouse lung S9 fraction assessed as compound conversion to R-125489 at 10 uM in presence of esterase inhibitor BNPP administered 10 mins before compound addition relative to untreated control. The format is ADME. Particulars: s9, 10 min.
Data set [14] can be described thus: Prodrug conversion in BALB/cAnNCrlCrlj mouse lung S9 fraction assessed as compound conversion to R-125489 at 10 uM in presence of esterase inhibitor DTNB administered 10 mins before compound addition relative to untreated control. To be noted: s9, 10 min. The format is ADME.
A short description of data set [15]: Prodrug conversion in BALB/cAnNCrlCrlj mouse lung S9 fraction assessed as compound conversion to R-125489 at 10 uM in presence of esterase inhibitor EDTA administered 10 mins before compound addition relative to untreated control. To be noted: s9, 10 min. In kind it is ADME.
Data set [16] can be described thus: Prodrug conversion in BALB/cAnNCrlCrlj mouse lung S9 fraction assessed as compound conversion to R-125489 at 10 uM in presence of esterase inhibitor PCMB administered 10 mins before compound addition relative to untreated control. In kind it is ADME. To be noted: s9, 10 min.
In data set [17] the test system is Lung. The data set can be described thus: Cmax in BALB/cAnNCrlCrlj mouse lung assessed as compound concentration per gram of tissue at 0.5 umol/kg administered as [14C]labeled compound intranasally as single dose. In kind it is ADME, organism-based. On the set-up: dose 0.5 umol/kg, route nasal. Particulars: in vivo, inhaled_or_intranasal.
Data set [18] has as its system Lung. The data set can be described thus: Tmax in BALB/cAnNCrlCrlj mouse lung at 0.5 umol/kg administered as [14C]labeled compound intranasally as single dose. In kind it is ADME, organism-based. To be noted: in vivo, inhaled_or_intranasal.
Data set [19] has as its system Lung. The data set can be described thus: Drug level in BALB/cAnNCrlCrlj mouse lung at 0.5 umol/kg administered as [14C]labeled compound intranasally as single dose measured 120 hrs post dose. In kind it is ADME, tissue-based. To be noted: in vivo, inhaled_or_intranasal.
Another data set has as its system Influenza A virus. Briefly: Antiviral activity against Influenza A virus (A/Puerto Rico/8/1934(H1N1)). In kind it is functional, organism-based.

Consider `CO[C@@H]([C@@H]1OC(C(=O)O)=C[C@H](N[14C](=N)N)[C@H]1NC(C)=O)[C@H](O)CO`, for which the Drug uptake in data set [1] came to 4 nmolequiv/g; with Lung [2], 30 nmolequiv/g.

Regarding `CCCCCCCC(=O)OC[C@@H](O)[C@@H](OC)[C@@H]1OC(C(=O)O)=C[C@H](N[14C](=N)N)[C@H]1NC(C)=O`, the Drug uptake result in [3] was “Active”; in data set [4], “Active”; in data set [1], 4 nmolequiv/g; with Lung [2], 30 nmolequiv/g; in data set [5] it was 0.99 nmolequiv/g; in the data set with Lung [6], 5.57 nmolequiv/g.

For `CCCCCCCC(=O)OC[C@@H](O)[C@@H](OC)[C@@H]1OC(C(=O)O)=C[C@H](NC(=N)N)[C@H]1NC(C)=O` [LANINAMIVIR OCTANOATE], the t1/2 in the data set with Lung [7] was determined as 0.833 h. Moreover, the Activity in [8] came to 100%; in data set [9], 44.1%; in data set [10], 100%; in data set [11], 13.6%; in data set [12], 31.9%; in [13], 21%. Also, the Activity in data set [14] turned out to be 42%; in [15], 130.7%; in data set [16], 106.5%.

For `CO[C@@H]([C@@H]1OC(C(=O)O)=C[C@H](NC(=N)N)[C@H]1NC(C)=O)[C@H](O)CO` [LANINAMIVIR], the Cmax in the data set on Lung [17] is reported as 6.41 nmol/g. In the data set with Lung [18], the Tmax amounted to 3 h. For the same compound, the t1/2 in the data set on Lung [7] is 41.4 h. Also, the Drug uptake in the data set on Lung [19] is 0.915 nmol/g. In the data set on Influenza A virus, the pIC50 was 8.22.

As to `CC(=O)N[C@H]1[C@H]([C@H](O)[C@H](O)CO)OC(C(=O)O)=C[C@@H]1N[14C](=N)N` [[14C]-ZANAMIVIR], the Drug uptake in data set [1] was found to be 4 nmolequiv/g; in the data set on Lung [2], 30 nmolequiv/g.
